Reference: patent US9850245B2 (Merck Sharp & Dohme Corp., priority 2014, dated 2017)

Key:
[1] = molecular target: Kir1.1 (ROMK1) (Homo sapiens (Human), UniProt P48048); assay: Electrophysiology Assay (whole cell voltage clamp, IonWorks Quattro); assay type: cell-based; details: Chinese hamster ovary cells stably expressing Kir1.1; fractional block at voltage step to 0 mV; 6 min compound incubation
Description: Blocking of Kir1.1 (ROMK1) currents was examined by whole cell voltage clamp (Hamill et. al. Pfluegers Archives 391:85-100 (1981)) using the IonWorks Quattro automated electrophysiology platform (Molecular Devices, Sunnyvale, Calif.). Chinese hamster ovary cells stably expressing Kir1.1 channels were maintained in T-75 flasks in cell culture media in a humidified 10% CO2 incubator at 37° C. Prior to an experiment, Kir1.1 expression was induced by overnight incubation with 1 mM sodium butyrate. On the day of the experiment, cells were dissociated with 2.5 mL of Versene (Invitrogen 15040-066), a non-enzymatic cell dissociation reagent, for approximately 6 min at 37° C. and suspended in 10 mL of bath solution containing (in mM): 150 NaCl, 10 KCl, 2.7 CaCl2, 0.5 MgCl2, and 5 HEPES, at pH 7.4. After centrifugation, the cell pellet was resuspended in approximately 4.0 mL of bath solution and placed in the IonWorks instrument. The intracellular solution consisted of (in mM): 80 K gluconate, 40 KCl, 20 KF, 3.2 MgCl2, 3 EGTA, and 5 Hepes, at pH 7.4. Electrical access to the cytoplasm was achieved by perforation in 0.13 mg/mL amphotericin B for 4 min. Amphotericin B (Sigma A-4888) was prepared as a 40 mg/mL solution in DMSO.
Voltage protocols and current recordings were performed using the IonWorks HT software/hardware system. Currents were sampled at 1 kHz. There was no correction for liquid junction potentials. The test pulse, consisting of a 100 ms (millisecond) step to 0 mV (millivolts) from a holding potential of −70 mV, followed by a 100 ms voltage ramp from −70 mV to +70 mV, was applied before and after a 6 min compound incubation period. Test compounds were prepared by diluting DMSO stock solutions into the bath solution at 3× the final concentration and placed in the instrument in 96-well polypropylene plates. Current amplitudes were measured using the IonWorks software. To assess compound potency, the fractional block during the voltage step to 0 mV was calculated in Microsoft Excel (Microsoft, Redmond, Calif.), and dose-response curves were fitted with Igor Pro 4.0 (WaveMetrics, Lake Oswego, Oreg.).

[2] = molecular target: ROMK (Homo sapiens (Human), UniProt P48048); assay: Thallium Flux Assay; assay type: cell-based
Description: A Thallium Flux Assay was performed on the compounds of the Examples. This assay has been described previously; see, e.g., PCT Published Application WO 2013/062900.

Sequence of Kir1.1 (ROMK1) (P48048 whole entry): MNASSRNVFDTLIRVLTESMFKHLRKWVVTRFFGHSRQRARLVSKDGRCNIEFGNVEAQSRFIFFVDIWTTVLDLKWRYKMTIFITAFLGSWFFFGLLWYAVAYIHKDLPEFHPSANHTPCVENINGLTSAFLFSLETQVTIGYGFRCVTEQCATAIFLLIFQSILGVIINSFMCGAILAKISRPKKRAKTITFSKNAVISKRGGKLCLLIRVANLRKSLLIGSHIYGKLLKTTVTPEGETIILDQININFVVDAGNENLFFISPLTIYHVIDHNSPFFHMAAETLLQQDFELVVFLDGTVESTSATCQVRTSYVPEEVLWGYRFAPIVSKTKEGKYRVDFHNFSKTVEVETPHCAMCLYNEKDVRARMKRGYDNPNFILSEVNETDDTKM
Sequence of ROMK (P48048 whole entry): as above

Structure (SMILES)	IC50 [1]	IC50 [2]
CC1=C(N2CCOC3(CCN(CCc4ccc(-n5cnnn5)cn4)CC3)C2)COC1=O [Example 50]	16 nM	57.6 nM
Cc1nc(-n2cnnn2)ccc1C(O)CN1CCC2(CC1)CN(C1=CC(=O)OC1)CCO2 (single isomer, unassigned) [Example 20A, 4-(9-(2-hydroxy-2-(2-methyl-6-(1H-tetrazol-1-yl)pyridin-3-yl)ethyl)-1-oxa-4,9-diazaspiro[5.5]undecan-4-yl)furan-2(5H)-one]	37 nM	61.5 nM
CC1=C(N2CCOC3(CCN(CCc4ccc(-n5cnnn5)nn4)CC3)C2=O)COC1=O [Example 51, 9-(2-(6-(1H-tetrazol-1-yl)pyridazin-3-yl)ethyl)-4-(4-methyl-5-oxo-2,5-dihydrofuran-3-yl)-1-oxa-4,9-diazaspiro[5.5]undecan-5-one]	7.3 nM	26.8 nM
CC1=C(N2CCOC3(CCN(CC(O)c4ccc(-n5cnnn5)nc4C)CC3)C2=O)COC1=O (stereo not shown) [Example 39, 9-(2-hydroxy-2-(2-methyl-6-(1H-tetrazol-1-yl)pyridin-3-yl)ethyl)-4-(4-methyl-5-oxo-2,5-dihydrofuran-3-yl)-1-oxa-4,9-diazaspiro[5.5]undecan-5-one]	13 nM	11.2 nM
CC1=C(N2CCOC3(CCN(CC(O)c4ccc(-n5cnnn5)nc4C)CC3)C2)COC1=O (single isomer, unassigned) [Example 22B, 4-(9-(2-hydroxy-2-(2-methyl-6-(1H-tetrazol-1-yl)pyridin-3-yl)ethyl)-1-oxa-4,9-diazaspiro[5.5]undecan-4-yl)-3-methylfuran-2(5H)-one]	29 nM	117 nM
CC1=C(N2CCOC3(CCN(C[C@H](O)c4ccc5c(c4C)COC5=O)CC3)C2)COC1=O [Example 21, (R)-5-(1-hydroxy-2-(4-(4-methyl-5-oxo-2,5-dihydrofuran-3-yl)-1-oxa-4,9-diazaspiro[5.5]undecan-9-yl)ethyl)-4-methylisobenzofuran-1(3H)-one]	77 nM	171 nM
CC1=C(N2CCOC3(CCN(CC(O)c4ccc(-n5cnnn5)nc4C)CC3)C2)COC1=O (single isomer, unassigned) [Example 22A, 4-(9-(2-hydroxy-2-(2-methyl-6-(1H-tetrazol-1-yl)pyridin-3-yl)ethyl)-1-oxa-4,9-diazaspiro[5.5]undecan-4-yl)-3-methylfuran-2(5H)-one]	11 nM	34 nM
O=C1C=C(N2CCOC3(CCN(C[C@H](O)c4ccc(-n5cnnn5)nc4)CC3)C2)CO1 [Example 19A, (R)-4-(9-(2-(6-(1H-tetrazol-1-yl)pyridin-3-yl)-2-hydroxyethyl)-1-oxa-4,9-diazaspiro[5.5]undecan-4-yl)furan-2(5H)-one]	56 nM	80.6 nM
CC1=C(N2CCOC3(CCN(CC(O)c4cnc(-n5cnnn5)cn4)CC3)C2=O)COC1=O (single isomer, unassigned) [Example 18A, 9-(2-(5-(1H-tetrazol-1-yl)pyrazin-2-yl)-2-hydroxyethyl)-4-(4-methyl-5-oxo-2,5-dihydrofuran-3-yl)-1-oxa-4,9-diazaspiro[5.5]undecan-5-one]	12 nM	69.6 nM
CC1=C(N2CCOC3(CCN(C[C@H](O)c4ccc5c(c4C)COC5=O)CC3)C2=O)COC1=O [Example 8A, (R)-9-(2-hydroxy-2-(4-methyl-1-oxo-1,3-dihydroisobenzofuran-5-yl)ethyl)-4-(4-methyl-5-oxo-2,5-dihydrofuran-3-yl)-1-oxa-4,9-diazaspiro[5.5]undecan-5-one]	6.4 nM	13.3 nM
Cc1nc(-n2cnnn2)ccc1C(O)CN1CCC2(CC1)CN(C1=CC(=O)OC1)CCO2 (single isomer, unassigned) [Example 20B, 4-(9-(2-hydroxy-2-(2-methyl-6-(1H-tetrazol-1-yl)pyridin-3-yl)ethyl)-1-oxa-4,9-diazaspiro[5.5]undecan-4-yl)furan-2(5H)-one]	71 nM	225 nM
